Results as given in patent US10266569B2 (priority 2014, dated 2019).
“Also recorded” adds a separate entry of the source.

Tests used:
CDV = format: cell-based, canine distemper virus
NiV N = NiV N (Nipah virus, UniProt Q9IK92); format: cell-based
[1] = system: NiV (Malaysian isolate UMMC1); format: cell-based, Nipah virus
[2] = system: NiV (Malaysian isolate UMMC1); format: cell-based, Nipah virus; remark: listed apart in the source

NiV N, sequence (Q9IK92 whole entry, looked up): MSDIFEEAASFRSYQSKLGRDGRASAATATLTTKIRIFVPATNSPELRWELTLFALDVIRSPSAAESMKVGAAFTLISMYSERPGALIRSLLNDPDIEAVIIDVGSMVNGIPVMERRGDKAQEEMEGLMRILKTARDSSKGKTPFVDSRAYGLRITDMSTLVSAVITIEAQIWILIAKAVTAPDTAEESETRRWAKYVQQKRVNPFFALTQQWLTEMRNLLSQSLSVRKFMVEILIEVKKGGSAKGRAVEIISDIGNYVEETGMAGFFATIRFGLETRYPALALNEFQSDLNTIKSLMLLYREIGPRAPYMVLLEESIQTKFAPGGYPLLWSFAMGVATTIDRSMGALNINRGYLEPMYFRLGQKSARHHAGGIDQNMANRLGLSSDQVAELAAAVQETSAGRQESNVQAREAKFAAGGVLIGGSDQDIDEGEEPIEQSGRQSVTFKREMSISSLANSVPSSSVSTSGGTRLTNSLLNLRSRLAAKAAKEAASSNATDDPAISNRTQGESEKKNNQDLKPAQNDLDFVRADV

Row | Sequence | dose dependence of inhibition of CDV replication (CDV) | colocalization with N in the cell (NiV N) | maintenance of N in a soluble form (NiV N) | inhibition of NiV viral growth (viral titer in culture supernatant) [1] | syncytia formation in NiV-infected cells [1] | inhibition of NiV viral growth (virus titer in culture supernatant) [2] | inhibition of CDV viral growth (virus titer in culture supernatant) (CDV)
1 | MAEEQAYHVSKGLECLKALRENPPDIEEIQEVSSLRDQTC [P40-CDV] | dose-dependant | – | – | – | – | – | –
2 | MDKLELVNDGLNIIDFIQKNQKEIQKTYGRSSIQQPSIKD [P40] | dose-dependant | colocalization of N with P40 | sufficient to maintain N in a soluble form | significantly inhibits viral growth in a dose-dependent manner; also recorded: inhibited viral replication; also recorded: able to inhibit the replication of Nipah virus | abolishes syncytia formation | inhibit viral growth | inhibit viral growth
